Test results: ChEMBL document CHEMBL1201862, “PubChem BioAssay data set” (2004)
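Assay format: 96-well plates, 48-hour exposure. GI50 = concentration required for 50% inhibition of growth.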 Calls of active or inactive are those of the source. Cut-off read from the data, not from the text of the source: active = GI50 up to about 1.1 µM and inactive = higher.

Experiments:
Experiment in all cases: NCI anticancer screen, dose series, 48 h
KM12 = test system: KM12
HOP-92 = test system: HOP-92
SN12C = test system: SN12C
NCI-H522 = test system: NCI-H522
U-251 = test system: U-251
OVCAR-5 = test system: OVCAR-5
K562 = test system: K562
MOLT-4 = test system: MOLT-4
OVCAR-8 = test system: OVCAR-8
SW-620 = test system: SW-620
COLO 205 = test system: COLO 205
OVCAR-3 = test system: OVCAR-3
HOP-62 = test system: HOP-62
IGROV-1 = test system: IGROV-1
SK-OV-3 = test system: SK-OV-3
A549 = test system: A549
NCI-H226 = test system: NCI-H226
SNB-19 = test system: SNB-19
A498 = test system: A498

Measured: GI50

Cc1cc(O)nc(NNC(C#N)c2ccc(O)cc2)n1 (centres undefined)
inactive: KM12 > 100 µM | HOP-92 > 100 µM | SN12C > 100 µM | NCI-H522 > 100 µM | U-251 > 100 µM | OVCAR-5 > 100 µM | K562 > 100 µM | MOLT-4 > 100 µM | OVCAR-8 > 100 µM | SW-620 > 100 µM | COLO 205 > 100 µM | OVCAR-3 > 100 µM | HOP-62 > 100 µM | IGROV-1 > 100 µM | SK-OV-3 > 100 µM | A549 > 100 µM | NCI-H226 > 100 µM

CC(=O)n1nnc2ccc([N+](=O)[O-])cc21
inactive: KM12 > 100 µM | HOP-92 > 100 µM | SN12C > 100 µM | NCI-H522 > 100 µM | U-251 > 100 µM | OVCAR-5 > 100 µM | K562 > 100 µM | MOLT-4 > 100 µM | OVCAR-8 > 100 µM | SW-620 > 100 µM | COLO 205 > 100 µM | OVCAR-3 > 100 µM | HOP-62 > 100 µM | SNB-19 > 100 µM | IGROV-1 > 100 µM | SK-OV-3 > 100 µM | A549 > 100 µM | NCI-H226 > 100 µM

CC1=N/C(=C/c2ccc3c(c2)OCO3)C(=O)O1
inactive: KM12 > 100 µM | HOP-92 > 100 µM | SN12C > 100 µM | NCI-H522 > 100 µM | U-251 > 100 µM | OVCAR-5 > 100 µM | K562 > 100 µM | MOLT-4 > 100 µM | OVCAR-8 > 100 µM | SW-620 > 100 µM | COLO 205 > 100 µM | OVCAR-3 > 100 µM | SNB-19 > 100 µM | IGROV-1 > 100 µM | SK-OV-3 > 100 µM | A549 > 100 µM | A498 > 100 µM

C#C[C@H](CCCC)OC(=O)N[C@H](C)c1ccccc1
inactive: KM12 51.3 µM | HOP-92 57.5 µM | SN12C > 100 µM | NCI-H522 29.2 µM | U-251 59.8 µM | OVCAR-5 48 µM | K562 34.6 µM | MOLT-4 31.3 µM | OVCAR-8 49.3 µM | SW-620 68.2 µM | COLO 205 21.7 µM | OVCAR-3 53.3 µM | HOP-62 > 100 µM | SNB-19 > 100 µM | IGROV-1 75.3 µM | SK-OV-3 > 100 µM | A549 36.1 µM
